In general, EC50 refers to the concentration at which the effect is half-maximal. Usually IC50 stands for the point on the concentration scale where inhibition reaches its midpoint. Read a high IC50 as weaker potency in that assay. The Ki is a dissociation constant, usually derived from enzyme kinetics or from competition with a known ligand.

We go through four compounds from patent publication US20230271949A1, “GLP-1R MODULATING COMPOUNDS” (ASCLETIS BIOSCIENCE CO., LTD., priority 2022, published 2023).

The target in assay [1] is T1, GLP-1R (Homo sapiens, UniProt P43220). Put plainly: GLP-1R agonist cAMP stimulation assay (HTRF cAMP). The conditions noted are these: HEK293 cell line expressing GLP-1 target; HTRF cAMP agonist mode, 30 min at RT. The class given is cell-based. The essentials: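 GLP-1R-expressing cells were stimulated with 10-point, 3-fold compound dilutions for 30 min at RT; HTRF cAMP detection reagents were then added for 60 min and the 665/615 ratio read. Ratios were converted to cAMP via a standard curve and % activity scaled between DMSO and top-concentration GLP-1(7-37) reference wells.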
Background: TR-FRET usually uses a lanthanide donor and a delayed reading to cut background.

The target of assay [2] is T1, GLP-1R. The assay is described as follows: Tag-lite binding assay (competition with GLP-1 receptors red agonist). The conditions noted are these: for IC50: HEK293 GLP-1 cells labeled with SNAP-Lumi4-Tb, red agonist 4.917 nM, 23° C., 2 h; for Ki: calculated from sample IC50 and red agonist Kd. On the procedure: B. Tag-Lite Binding Assay
The cell line was constructed by WuXi.
10) Dispense cells into cell plate (1.8 M cells/well in 2 ml medium of 6-well plate, total 4 wells).
Second Day: Tag-Lite Binding Assay
3) The cell culture medium is removed from the 6-well plate and then 1 mL of Tag-lite SNAP-Lumi4-Tb diluted in Tag-lite labeling medium are added gently on the cells.
7) The testing compounds and reference compound are serially diluted with 3-fold, 10 points using Echo, then transfer 100 nL compounds to the assay plate.
8) Add the labeled cells to each well according to the plate map, 10000 cells/10 uL/well. Centrifuge the plate at 1000 rpm for 1 min.
9) Incubate the plate at 23° C., 30 min.
10) Add 50 nL of red agonist (final conc.: 4.917 nM) to destination plate using Echo.
11) Incubate the plate at 23° C. for 2 h.
12) Read the plate on an HTRF® compatible reader (at 665 nm and 620 nm).
% Inhibition=100%−(Ratio−LC)/(HC−LC)*100%
HC: The average ratio of adding DMSO wells
LC: The average ratio of adding the top concentration of reference compounds wells
b) The “log (inhibitor) vs. response—Variable slope” model in GraphPad Prism 5.0 was used to fit the dose-response curve of each sample. The sample concentration (x) and its corresponding % Inhibition data (y) were substituted into the model. The sample concentration (abscissa) was x=log(x) transformed. The transformed xy was used as the sample curve to obtain the IC50.
c) Calculate the sample Ki according to the sample IC50 and red agonist Kd. S in the formula is the actual used concentration of red agonist.

T1 sequence (P43220 24-463): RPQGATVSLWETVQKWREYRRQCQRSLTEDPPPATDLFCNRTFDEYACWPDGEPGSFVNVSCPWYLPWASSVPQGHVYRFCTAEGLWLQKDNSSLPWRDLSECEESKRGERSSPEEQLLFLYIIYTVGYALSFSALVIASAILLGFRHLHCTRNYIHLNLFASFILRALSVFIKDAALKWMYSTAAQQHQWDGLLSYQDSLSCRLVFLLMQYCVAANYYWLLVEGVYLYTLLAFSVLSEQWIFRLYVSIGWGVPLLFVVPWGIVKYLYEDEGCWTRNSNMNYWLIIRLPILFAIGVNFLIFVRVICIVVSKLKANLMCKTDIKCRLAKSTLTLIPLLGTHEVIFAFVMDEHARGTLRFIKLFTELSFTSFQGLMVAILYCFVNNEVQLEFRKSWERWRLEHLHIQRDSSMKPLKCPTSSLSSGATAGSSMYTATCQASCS

The compound `Cc1n[nH]c2c(F)cc(NC(=O)c3ccc4c(c3)nc(CN3CCC(c5cccc(OCc6ccc(Cl)cc6F)n5)CC3)n4C[C@@H]3CCO3)cc12` [Compound 103] gave an EC50 in assay [1] of 0.83 nM. In addition, in assay [2], the IC50 worked out at 1550 nM and the Ki is 885 nM.

`O=C(Nc1ccc2[nH]c(=O)[nH]c2c1)c1ccc2c(c1)nc(CN1CC=C(c3cccc(OCc4ccc(Cl)cc4F)n3)CC1)n2C[C@@H]1CCO1` [Compound 147] displayed an EC50 in assay [1] of 0.68 nM. Moreover, in assay [2], the IC50 was 1750 nM and the Ki was 841 nM.

`Cc1n[nH]c2ccc(NC(=O)c3ccc4c(c3)nc(CN3CCC(c5cccc(OCc6ccc(Cl)cc6F)n5)CC3)n4C[C@@H]3CCO3)cc12` [Compound 88] yielded an EC50 in assay [1] of 4.45 nM. Besides, in assay [2], the IC50 came to 1840 nM and the Ki is 920 nM.

Regarding `O=C(Nc1ccc2c(c1)nc(CN1CC=C(c3cccc(OCc4ccc(Cl)cc4F)n3)CC1)n2C[C@@H]1CCO1)c1ccc2[nH]c(=O)[nH]c2c1` [Compound 142], the response in assay [1] was half-maximal at 0.21 nM (EC50). Moreover, in assay [2], the half-maximal inhibitory concentration (IC50) stood at 2010 nM and the Ki is 1000 nM.
